Experimental data: patent US20220305115A1 (JANSSEN SCIENCES IRELAND UNLIMITED COMPANY, priority 2019, published 2022)

Key:
Type in all cases: cell-based
[1] = molecular target: T1, human TLR7 (Homo sapiens, UniProt Q9NYK1); assay: HEK-Blue human TLR7 cell SEAP reporter assay (NF-κB activation); details: HEK-Blue human TLR7 cells, stimulation for 20 hours, Quanti Blue read at 640 nm
T1 construct: host or cells: HEK-Blue human TLR7 cells (HEK293-derived reporter line)
T1 sequence (Q9NYK1 27-1049): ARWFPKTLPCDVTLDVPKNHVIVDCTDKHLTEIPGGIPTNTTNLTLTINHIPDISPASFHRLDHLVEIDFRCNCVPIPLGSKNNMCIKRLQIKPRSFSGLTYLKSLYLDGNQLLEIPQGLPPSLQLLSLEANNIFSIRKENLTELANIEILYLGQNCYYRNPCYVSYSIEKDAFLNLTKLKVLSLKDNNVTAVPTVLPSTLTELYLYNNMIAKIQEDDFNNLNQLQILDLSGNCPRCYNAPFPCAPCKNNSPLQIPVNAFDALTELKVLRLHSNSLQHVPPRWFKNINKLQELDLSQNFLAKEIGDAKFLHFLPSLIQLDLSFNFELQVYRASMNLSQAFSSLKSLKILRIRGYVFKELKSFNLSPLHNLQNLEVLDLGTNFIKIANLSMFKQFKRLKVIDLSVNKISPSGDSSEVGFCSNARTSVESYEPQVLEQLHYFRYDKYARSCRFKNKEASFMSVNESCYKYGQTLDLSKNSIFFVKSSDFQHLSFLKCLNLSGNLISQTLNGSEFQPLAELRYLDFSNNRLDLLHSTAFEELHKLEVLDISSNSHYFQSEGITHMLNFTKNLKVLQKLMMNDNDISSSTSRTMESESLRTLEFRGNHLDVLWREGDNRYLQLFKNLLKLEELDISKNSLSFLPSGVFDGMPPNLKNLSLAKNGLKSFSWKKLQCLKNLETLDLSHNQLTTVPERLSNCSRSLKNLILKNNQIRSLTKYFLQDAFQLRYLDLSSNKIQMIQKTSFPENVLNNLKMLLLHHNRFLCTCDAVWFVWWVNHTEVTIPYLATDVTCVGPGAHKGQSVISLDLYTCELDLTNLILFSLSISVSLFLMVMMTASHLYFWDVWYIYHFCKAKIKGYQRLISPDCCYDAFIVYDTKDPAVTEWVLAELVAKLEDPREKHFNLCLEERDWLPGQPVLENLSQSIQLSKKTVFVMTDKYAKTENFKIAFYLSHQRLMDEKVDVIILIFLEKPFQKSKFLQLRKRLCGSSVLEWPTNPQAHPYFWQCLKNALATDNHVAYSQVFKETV
Description: For TLR8 and TLR7 activity testing, HEK-Blue human TLR8 or TLR7 cells (Invivogen, San Diego, Calif., USA) are used, respectively. These cells are designed for studying the stimulation of human TLR8 or TLR7 by monitoring the activation of NF-κB. A SEAP (secreted embryonic alkaline phosphatase) reporter gene is placed under the control of the IFN-b minimal promoter fused to five NF-κB and AP-1-binding sites. Therefore the reporter expression is regulated by the NF-κB promoter upon stimulation of human TLR8 or TLR7 for 20 hours. The cell culture supernatant SEAP reporter activity was determined using Quanti Blue kit (Invivogen, San Diego, Ca, USA) at a wavelength of 640 nm, a detection medium that turns purple/blue in the presence of alkaline phosphatase. EC50 values were determined using Activity Base analysis (ID Business Solution, Limited).

[2] = tested on: Huh-7 cells; assay: Off-target cytotoxicity, Huh-7 cells (Cell Titer Glo, 5 days); details: Huh-7, five days incubation, intracellular ATP; read-out: CC50 HEH7 CTG 50
Description: (§1) To assess potential off-target toxicity of certain compounds disclosed herein, the in vitro cytotoxicity of those compounds was profiled using a panel of 5 cell lines with various tissue origins. Compound cytotoxicity was examined in hepatoma-derived Huh-7 and HepG2 cells, prostate carcinoma-derived PC-3 cells, lymphoma derived MT-4 cells and a normal diploid lung cell line MRC-5. HepG2 and PC-3 cells used were adapted to grow in glucose-free galactose-containing medium. These cells have a relatively higher sensitivity to inhibitors of mitochondrial oxidative phosphorylation compared to the same cells maintained in standard glucose-containing culture medium (Marroquin et al., Toxicol. Sci. 2007; 97 (2):539-47). Cell viability was determined by measuring intracellular ATP levels following five days of continuous incubation with test compounds.
(§2) The human hepatoma Huh-7 cell line was obtained from ReBLikon GmbH (Mainz, Germany) {20879}. The MT-4 cell line (HTLV-1 transformed, human T lymphoblastoid cells) was obtained from the NIH AIDS Reagent program (Bathesda, Md.). The human hepatoblastoma cell line HepG2, human prostate carcinoma cell line PC-3, and normal fetal lung derived MRC-5 cells were obtained from the American Type Culture Collection (ATCC, Manassas, Va.).
(§3) Huh-7 cells were maintained in Dulbecco's Modified Eagle Medium (DMEM) supplemented with 10% fetal bovine serum (FBS, Hyclone, Logan, Utah), 1% non-essential amino acids (Gibco, Carlsbad, Calif.). PC-3 and HepG2 cells were adapted to grow in 0.2% galactose-containing, glucose-free Dulbecco's Modified Eagle Medium (DMEM) supplemented with 10% fetal bovine serum (FBS, Hyclone, Logan, Utah), 1% non-essential amino acids (Gibco, Carlsbad, Calif.), 1% Pyruvate (Cellgro), 1% Glutamax (Invitrogen, Carlsbad, Calif.). Galactose-adapted cells were maintained in the same culture medium. MRC-5 cells were maintained in Eagle's Minimum Essential Medium (EMEM) supplemented with 10% fetal bovine serum (FBS, Hyclone, Logan, Utah). MT-4 cells were maintained in RPMI-1640 supplemented with 10% fetal bovine serum (FBS, Hyclone, Logan, Utah). All cell culture media were also supplemented with 100 Units/mL penicillin, 100 μg/mL streptomycin (Gibco).
(§4) Using a Biotek uFlow Workstation (Biotek, Winooski, Vt.), 1500 HepG2, 1500 PC-3, 500 Huh7 or 1500 MRC-5 cells in 90 μL of culture media were dispensed into each well of black polystyrene tissue culture-treated 384-well plates. Plated cells were incubated for 24 hours in an incubator at 37° C., 5% CO2 and 90% humidity. Compound serial dilutions were performed in 100% DMSO in 384-well polypropylene (high recovery) plates on a Biomek FX Workstation (Beckman Coulter, Fullerton, Calif.). After 3-fold serial dilutions, 0.4 μL of compounds were transferred into 384-well plates containing cells using a Velocity 11 system equipped with a Bravo 384-well pipettor. The DMSO concentration in the final assay plates was 0.44% (v/v). Cells were incubated with compound(s) for five days at 37° C. Puromycin (44 μM final concentration) and DMSO (0.44%, v/v) were used as a positive and negative controls, respectively
(§5) At the end of the incubation period the cytotoxicity assay was performed as follows: Media from 384-well cell culture plates were aspirated with a Biotek EL405 plate-washer (Biotek) and cells were washed with 100 μL PBS once. Twenty microliters of Cell Titer Glo (Promega, Madison, Wis.) was added to each well of the plates with a Biotek uFlow liquid dispenser. Plates were incubated for 15 minutes at room temperature before luminescence was measured with a Perkin Elmer Envision Plate Reader (Perkin Elmer, Waltham, Mass.).
(§6) CC50 values were defined as the compound concentration that caused a 50% decrease in luminescence signal, and were calculated by non-linear regression using Pipeline Pilot software by applying a four parameter fit equation (Accelrys, San Diego, Calif.). Individual CC50 values are listed as μM concentrations.

[3] = Off-target cytotoxicity, galactose-adapted HepG2 cells (Cell Titer Glo, 5 days); details: human, galactose-adapted HepG2, five days incubation, intracellular ATP, read-out: CC50 GALHEPG2 CTG 50
Description: as §1, §2, §3, §4, §5, §6

[4] = Off-target cytotoxicity, galactose-adapted PC-3 cells (Cell Titer Glo, 5 days); details: human, galactose-adapted PC-3, five days incubation, intracellular ATP, read-out: CC50 GALFC3 CTG 50
Description: as §1, with “These cells have a relatively higher sensitivity to inhibitors of mitochondrial oxidative phosphorylation compared to the same cells maintained in standard glucose-containing culture medium (Marroquin et al., Toxicol. Sci. 2007; 97 (2):539-47).” left out
as §2, with “The” for “The human hepatoma Huh-7 cell line was obtained from ReBLikon GmbH (Mainz, Germany) {20879}. The”
as §3, with “MT-4 cells were maintained in RPMI-1640 supplemented with 10% fetal bovine serum (FBS, Hyclone, Logan, Utah).” left out
as §4, with “C.” for “C. Puromycin (44 μM final concentration) and DMSO (0.44%, v/v) were used as a positive and negative controls, respectively”
as §5

[5] = Off-target cytotoxicity, MT-4 cells (Cell Titer Glo, 5 days); details: human, MT-4, five days incubation, intracellular ATP, read-out: CC50 (MT4)
Description: as §1, with “These cells have a relatively higher sensitivity to inhibitors of mitochondrial oxidative phosphorylation compared to the same cells maintained in standard glucose-containing culture medium (Marroquin et al., Toxicol. Sci. 2007; 97 (2):539-47).” left out
as §2, with “The” for “The human hepatoma Huh-7 cell line was obtained from ReBLikon GmbH (Mainz, Germany) {20879}. The”
as §3, with “MT-4 cells were maintained in RPMI-1640 supplemented with 10% fetal bovine serum (FBS, Hyclone, Logan, Utah).” left out
For the MT-4 cytotoxicity assay, 0.4 μL of serially diluted compounds were added to 40 μl of cell maintenance media in 384-well black, solid bottom plate using a Biomek FX workstation (Beckman Coulter). Two thousand cells in 35 μL were added to each well using a Biotek uFlow Workstation (Biotek). […] Assay plates were incubated for five days at 37° C. in an incubator set at 5% CO2 and 90% humidity. After five days, 22 μL of Cell Titer Glo reagent (Promega) was added to the assay plates with a Biotek uFlow Workstation. Plates were subsequently placed on a Perkin Elmer Envision Plate Reader for five minutes before the luminescence signal was read.

[6] = tested on: MRC-5 cells; assay: Off-target cytotoxicity, MRC-5 cells (Cell Titer Glo, 5 days); details: MRC-5, five days incubation, intracellular ATP; read-out: CC50 MHCS CTG 50
Description: as §1, §2, §3, §4, §5, §6

| EC50 [1] [µM] | SMILES | CC50 [2] [µM] | CC50 at 5 days [3] [µM] | CC50 at 5 days [4] [µM] | CC50 at 5 days [5] [µM] | CC50 [6] [µM] |
| --- | --- | --- | --- | --- | --- | --- |
| > 100 | CCCN(CCC)C(=O)C1=Cc2ccc(C3=NCc4ccncc4N3)cc2N=C(N)C1 [Example 2, 2-Amino-8-(1,4-dihydropyrido[3,4-d]pyrimidin-2-yl)-N,N-dipropyl-3H-1-benzazepine-4-carboxamide] | – | – | – | – | – |
| > 100 | CCCN(CCC)C(=O)C1=Cc2ccc(C3=NCc4c(Cl)cccc4N3)cc2N=C(N)C1 [Example 5, 2-Amino-8-(5-chloro-1,4-dihydroquinazolin-2-yl)-N,N-dipropyl-3H-1-benzazepine-4-carboxamide] | – | – | – | – | – |
| > 100 | CCCN(CC1CC1)C(=O)C1=Cc2ccc(C3=NCc4ccccc4N3)cc2N=C(N)C1 [Example 3, 2-Amino-N-(cyclopropylmethyl)-8-(1,4-dihydroquinazolin-2-yl)-N-propyl-3H-1-benzazepine-4-carboxamide] | – | – | – | – | – |
| – | CCCC[C@@](C)(Nc1nc(N)nc2cccnc12)C(C)O (single isomer, unassigned) [Compound 97] | 44.4 | 33 | 27.5 | 30 | 44.4 |
| – | CCCC[C@](C)(CNC(C)=O)Nc1nc(N)nc2cc(Cl)cnc12 [Compound 65, (R)—N-(2-((2-amino-7-chloropyrido[3,2-d]pyrimidin-4-yl)amino)-2-methylhexyl)acetamide] | 44.4 | ≥ 44.4 | 44.4 | 56.6 | 44.4 |
| > 100 | CCCN(CC(C)C)C(=O)C1=Cc2ccc(C3=NCc4ccccc4N3)cc2N=C(N)C1 [Example 4, 2-Amino-8-(1,4-dihydroquinazolin-2-yl)-N-isobutyl-N-propyl-3H-1-benzazepine-4-carboxamide] | – | – | – | – | – |
| – | CCCC[C@H](CNC(C)=O)Nc1nc(N)nc2cccnc12 [Compound 51, (R)—N-(2-((2-aminopyrido[3,2-d]pyrimidin-4-yl)amino)hexyl)acetamide] | 44.4 | ≥ 44.4 | 37.2 | 57.1 | 44.4 |
| > 100 | CCCN(CCC)C(=O)C1=Cc2ccc(C3=NCc4ccc(Cl)cc4N3)cc2N=C(N)C1 [Example 6, 2-Amino-8-(7-chloro-1,4-dihydroquinazolin-2-yl)-N,N-dipropyl-3H-1-benzazepine-4-carboxamide] | – | – | – | – | – |
| > 100 | CCCN(CCC)C(=O)C1=Cc2ccc(C3=NCc4ccccc4N3)cc2N=C(N)C1 [Example 1, 2-Amino-8-(1,4-dihydroquinazolin-2-yl)-N,N-dipropyl-3H-1-benzazepine-4-carboxamide] | – | – | – | – | – |
